Results taken from the supplement of paper PMC10307832.

Columns and labels:
Test in all cases: relative viability (nuclei count vs DMSO), 5 days (fraction); higher = more cells survive
[1] = compound: CC[C@H](C)N1C=C(C2=C(C=C(C=C21)C3=CN=C(C=C3)N4CCNCC4)C(=O)NCC5=C(C=C(NC5=O)C)C)C [GSK126] + C[C@]1(O)C[C@@H](c2nc(-c3ccc4ccc(-c5ccccc5)nc4c3)c3c(N)nccn32)C1 [Linsitinib] (partner 1 µM)
Summary of the method: (§1)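 Lung cancer cell lines in 1536-well plates were dosed by pin tool the day after seeding, either with one drug alone or with a fixed anchor-drug dose plus five library-drug doses (not always all listed) in √10 steps. After 5 days, cells were fixed and their nuclei stained in one step (final 0.05% Triton X-100, 1% formaldehyde, 1 ug/ml Hoechst), then counted on 4× images. Relative viability is the nuclei count in treated wells divided by that in vehicle wells. Values are medians of duplicate plates.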

[2] = compound: NS(=O)(=O)OC[C@@H]1C[C@@H](n2ccc3c(N[C@H]4CCc5ccccc54)ncnc32)C[C@@H]1O [MLN4924] + COc1cccc2cc(-c3nc([C@H]4CC[C@H](C(=O)O)CC4)n4ncnc(N)c34)[nH]c12 [OSI-027] (partner 0.5 µM)
Summary of the method: as §1

[3] = compound: NS(=O)(=O)OC[C@@H]1C[C@@H](n2ccc3c(N[C@H]4CCc5ccccc54)ncnc32)C[C@@H]1O [MLN4924] + CCNC(=O)c1noc(-c2cc(C(C)C)c(O)cc2O)c1-c1ccc(CN2CCOCC2)cc1 [Luminespib] (partner 0.01 µM)
Summary of the method: as §1

[4] = compound: NS(=O)(=O)OC[C@@H]1C[C@@H](n2ccc3c(N[C@H]4CCc5ccccc54)ncnc32)C[C@@H]1O [MLN4924] + Nc1nc2[nH]cc(CCc3ccc(C(=O)N[C@@H](CCC(=O)O)C(=O)O)cc3)c2c(=O)[nH]1 [Pemetrexed] (partner 0.2 µM)
Summary of the method: as §1

| Cell Line | relative viability ([1]; first compound 0.08 µM) | relative viability ([1]; first compound 0.253 µM) | relative viability ([1]; first compound 0.8 µM) | relative viability ([1]; first compound 2.53 µM) | relative viability ([1]; first compound 8 µM) | relative viability ([2]; first compound 0.04 µM) | relative viability ([2]; first compound 0.1265 µM) | relative viability ([2]; first compound 0.4 µM) | relative viability ([2]; first compound 1.265 µM) | relative viability ([2]; first compound 4 µM) | relative viability ([3]; first compound 0.04 µM) | relative viability ([3]; first compound 0.1265 µM) | relative viability ([3]; first compound 0.4 µM) | relative viability ([3]; first compound 1.265 µM) | relative viability ([3]; first compound 4 µM) | relative viability ([4]; first compound 0.04 µM) | relative viability ([4]; first compound 0.1265 µM) | relative viability ([4]; first compound 0.4 µM) | relative viability ([4]; first compound 1.265 µM) | relative viability ([4]; first compound 4 µM) |
| --- | --- | --- | --- | --- | --- | --- | --- | --- | --- | --- | --- | --- | --- | --- | --- | --- | --- | --- | --- | --- |
| 201T | 1.04 | 1.11 | 1.06 | 1.07 | 1.18 | 0.824 | 0.857 | 0.46 | 0.139 | 0.115 | 1.15 | 0.916 | 0.887 | 0.384 | 0.29 | 0.291 | 0.312 | 0.315 | 0.287 | 0.257 |
| A549 | 0.687 | 0.524 | 0.541 | 0.594 | 0.58 |  |  |  |  |  |  |  |  |  |  |  |  |  |  |  |
| A-427 | 1.19 | 1.19 | 1.09 | 1.17 | 1.11 | 0.356 | 0.239 | 0.214 | 0.173 | 0.171 | 0.465 | 0.245 | 0.263 | 0.178 | 0.216 | 0.611 | 0.466 | 0.333 | 0.247 | 0.273 |
| ABC-1 | 0.83 | 1.03 | 0.67 | 0.703 | 0.755 | 0.7 | 0.511 | 0.323 | 0.196 | 0.248 | 1.14 | 0.548 | 0.306 | 0.184 | 0.24 |  |  |  |  |  |
| BEN | 1.19 | 0.953 | 0.813 | 0.893 | 0.653 | 0.318 | 0.308 | 0.228 | 0.218 | 0.195 | 0.292 | 0.201 | 0.27 | 0.138 | 0.158 | 0.602 | 0.884 | 0.455 | 0.28 | 0.227 |
| CAL-12T | 0.964 | 0.94 | 0.78 | 0.918 | 0.868 | 0.619 | 0.593 | 0.283 | 0.184 | 0.113 | 0.488 | 0.56 | 0.262 | 0.192 | 0.307 | 1.06 | 1.1 | 0.67 | 0.636 | 0.224 |
| COR-L23 | 1.06 | 1.12 | 0.918 | 0.912 | 0.99 | 0.718 | 0.602 | 0.555 | 0.199 | 0.119 | 0.67 | 0.569 | 0.42 | 0.174 | 0.139 | 0.193 | 0.199 | 0.168 | 0.163 | 0.132 |
| COR-L 105 | 1.01 | 1.06 | 0.729 | 0.997 | 0.858 | 0.721 | 0.617 | 0.511 | 0.238 | 0.311 | 0.494 | 0.553 | 0.283 | 0.201 | 0.236 | 0.901 | 0.914 | 0.557 | 0.305 | 0.363 |
| Calu-6 | 1.14 | 0.97 |  | 0.989 | 1.07 |  |  |  |  |  |  |  |  |  |  |  |  |  |  |  |
| ChaGo-K-1 |  |  |  |  |  | 0.461 | 0.35 | 0.272 | 0.181 | 0.176 | 0.469 | 0.399 | 0.258 | 0.256 | 0.177 | 0.272 | 0.258 | 0.251 | 0.179 | 0.181 |
| EBC-1 | 1.07 | 1.02 | 1 | 0.74 | 0.909 |  |  |  |  |  |  |  |  |  |  |  |  |  |  |  |
| EKVX | 1.04 | 1.12 | 0.918 | 1.01 | 0.885 | 0.71 | 0.712 | 0.622 | 0.214 | 0.175 | 0.943 | 0.756 | 0.682 | 0.257 | 0.166 | 0.45 | 0.411 | 0.316 | 0.23 | 0.174 |
| EMC-BAC-2 | 0.798 | 0.841 | 0.771 | 0.824 | 0.839 | 0.383 | 0.36 | 0.197 | 0.194 | 0.243 | 0.906 | 0.495 | 0.303 | 0.276 | 0.325 | 0.491 | 0.537 | 0.42 | 0.255 | 0.277 |
| EPLC-272H | 1.4 | 1.16 | 1.06 | 1.17 | 1.23 | 0.291 | 0.265 | 0.0696 | 0.13 | 0.136 | 0.328 | 0.152 | 0.219 | 0.164 | 0.143 | 0.242 | 0.195 | 0.0979 | 0.128 | 0.155 |
| H3255 | 0.99 | 0.96 | 0.945 | 0.893 | 0.874 | 0.578 | 0.472 | 0.373 | 0.256 | 0.291 | 0.843 | 0.73 | 0.541 | 0.288 | 0.292 | 0.603 | 0.577 | 0.396 | 0.263 | 0.308 |
| HARA | 1.01 | 0.898 | 0.872 | 0.976 | 0.836 | 0.465 | 0.361 | 0.271 | 0.0502 | 0.0686 | 0.683 | 0.618 | 0.291 | 0.0565 | 0.0527 | 0.215 | 0.164 | 0.14 | 0.0838 | 0.183 |
| HCC-15 | 0.927 | 0.683 | 0.891 | 0.957 | 0.827 | 0.347 | 0.197 | 0.139 | 0.0813 | 0.0848 | 0.168 | 0.171 | 0.161 | 0.125 | 0.0876 | 0.205 | 0.158 | 0.0806 | 0.0787 | 0.0939 |
| HCC-44 | 0.681 | 0.692 | 0.659 | 0.7 | 0.715 | 0.423 | 0.263 | 0.171 | 0.216 | 0.233 | 0.964 | 0.564 | 0.441 | 0.227 | 0.294 | 0.653 | 0.62 | 0.484 | 0.455 | 0.443 |
